Data reported in ChEMBL document CHEMBL4043168, “The design and SAR of a novel series of 2-aminopyridine based LRRK2 inhibitors” (Bioorg Med Chem Lett, 2017).

How the values were obtained:
[1] = target: Serine/threonine-protein kinase Nek7 (Homo sapiens) (UniProt Q8TDX7); experiment: Inhibition of NEK7 conserved Lys1 (AACLLDGVPVALKK) in human PBMC at 1 uM
[2] = target: T1, Mitogen-activated protein kinase kinase kinase 5 (Homo sapiens) (UniProt Q99683); experiment: Inhibition of MAP3K5 conserved Lys2 (DIKGDNVLINTYSGVLK) in human PBMC at 0.1 uM
T1 sequence (whole entry): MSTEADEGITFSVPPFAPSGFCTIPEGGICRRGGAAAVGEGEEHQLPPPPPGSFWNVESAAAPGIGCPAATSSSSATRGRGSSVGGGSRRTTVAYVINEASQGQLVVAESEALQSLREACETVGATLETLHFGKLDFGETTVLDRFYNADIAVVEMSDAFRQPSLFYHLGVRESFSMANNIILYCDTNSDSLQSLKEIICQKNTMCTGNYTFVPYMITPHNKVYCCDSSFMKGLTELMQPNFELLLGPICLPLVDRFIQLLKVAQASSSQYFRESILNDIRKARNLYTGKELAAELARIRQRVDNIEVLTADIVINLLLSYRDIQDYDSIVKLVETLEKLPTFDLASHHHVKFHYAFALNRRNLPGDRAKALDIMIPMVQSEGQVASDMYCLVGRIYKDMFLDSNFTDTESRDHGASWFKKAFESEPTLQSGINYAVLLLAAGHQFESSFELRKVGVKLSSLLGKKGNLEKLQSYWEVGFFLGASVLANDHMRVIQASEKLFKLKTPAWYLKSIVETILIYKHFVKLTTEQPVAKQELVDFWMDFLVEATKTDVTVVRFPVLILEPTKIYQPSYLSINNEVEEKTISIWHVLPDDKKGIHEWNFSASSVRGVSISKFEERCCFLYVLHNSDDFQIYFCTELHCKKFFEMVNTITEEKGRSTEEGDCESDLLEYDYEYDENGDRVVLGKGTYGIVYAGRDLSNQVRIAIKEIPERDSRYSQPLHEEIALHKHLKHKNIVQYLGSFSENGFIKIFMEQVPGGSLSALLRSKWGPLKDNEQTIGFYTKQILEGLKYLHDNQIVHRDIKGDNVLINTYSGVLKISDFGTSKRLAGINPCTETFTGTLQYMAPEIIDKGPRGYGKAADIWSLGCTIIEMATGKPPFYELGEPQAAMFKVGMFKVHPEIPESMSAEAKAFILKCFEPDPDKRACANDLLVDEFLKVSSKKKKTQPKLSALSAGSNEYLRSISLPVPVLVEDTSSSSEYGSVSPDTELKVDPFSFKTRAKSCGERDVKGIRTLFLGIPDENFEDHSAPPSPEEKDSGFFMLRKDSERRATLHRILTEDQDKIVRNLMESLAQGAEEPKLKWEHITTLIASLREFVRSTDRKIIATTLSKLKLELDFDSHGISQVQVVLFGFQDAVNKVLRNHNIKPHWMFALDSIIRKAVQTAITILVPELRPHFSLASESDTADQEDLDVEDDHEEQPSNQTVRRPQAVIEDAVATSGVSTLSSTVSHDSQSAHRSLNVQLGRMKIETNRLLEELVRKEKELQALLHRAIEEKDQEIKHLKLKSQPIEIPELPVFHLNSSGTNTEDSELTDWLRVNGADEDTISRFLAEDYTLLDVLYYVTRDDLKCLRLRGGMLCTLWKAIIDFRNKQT

[3] = target: Serine/threonine-protein kinase WNK1 (Homo sapiens) (UniProt Q9H4A3); experiment: Inhibition of Wnk1 conserved Lys2 (DLKCDNIFITGPTGSVK) in human PBMC at 1 uM
[4] = target: Serine/threonine-protein kinase Nek1 (Homo sapiens) (UniProt Q96PY6); experiment: Inhibition of NEK1 conserved Lys2 (DIKSQNIFLTK) in human PBMC at 1 uM
[5] = target: Mitogen-activated protein kinase 12 (Homo sapiens) (UniProt P53778); experiment: Inhibition of p38g conserved Lys2 (DLKPGNLAVNEDCELK) in human PBMC at 0.1 uM
[6] = target: Mitogen-activated protein kinase 14 (Homo sapiens) (UniProt Q16539); experiment: Inhibition of p38a (QELNKTIWEVPER) in human PBMC at 0.1 uM
[7] = target: 5'-AMP-activated protein kinase catalytic subunit alpha-2 (Homo sapiens) (UniProt P54646); experiment: Inhibition of AMPKa2 labeling at conserved Lys1 (VAVKILNR) in human PBMC at 0.1 uM
[8] = target: MAP/microtubule affinity-regulating kinase 3 (Homo sapiens) (UniProt P27448); experiment: Inhibition of MARK3 conserved Lys1 (EVAIKIIDK) in human PBMC at 0.1 uM
[9] = target: G protein-coupled receptor kinase 6 (Homo sapiens) (UniProt P43250); experiment: Inhibition of GPRK6 conserved Lys2 (DLKPENILLDDHGHIR) in human PBMC at 1 uM
[10] = target: T1, Mitogen-activated protein kinase kinase kinase 5 (Homo sapiens); experiment: Inhibition of MAP3K5 conserved Lys1 (IAIKEIPER) in human PBMC at 1 uM
[11] = target: Serine/threonine-protein kinase PLK1 (Homo sapiens) (UniProt P53350); experiment: Inhibition of PLK1 conserved Lys1 (CFEISDADTKEVFAGKIVPK) in human PBMC at 1 uM
[12] = target: Tyrosine-protein kinase Fer (Homo sapiens) (UniProt P16591); experiment: Inhibition of FER conserved Lys2 (TSVAVKTCKEDLPQELK) in human PBMC at 0.1 uM
[13] = target: Phosphatidylinositol 5-phosphate 4-kinase type-2 alpha (Homo sapiens) (UniProt P48426); experiment: Inhibition of PIP4K2A ATP binding site (AKELPTLKDNDFINEGQK) in human PBMC at 0.1 uM
[14] = target: Tyrosine-protein kinase Lyn (Homo sapiens) (UniProt P07948); experiment: Inhibition of LYN activation Loop (EGAKFPIKWTAPEAINFGCFTIK) in human PBMC at 0.1 uM
[15] = target: Calcium/calmodulin-dependent protein kinase type II subunit gamma (Homo sapiens) (UniProt Q13555); experiment: Inhibition of CaMK2g labeling at conserved Lys2 (DLKPENLLLASK) in human PBMC at 0.1 uM
[16] = target: Serine/threonine-protein kinase Nek4 (Homo sapiens) (UniProt P51957); experiment: Inhibition of NEK4 conserved Lys2 (DLKTQNVFLTR) in human PBMC at 1 uM
Serine/threonine-protein kinase Nek4 (Homo sapiens), sequence (P51957 whole entry, looked up): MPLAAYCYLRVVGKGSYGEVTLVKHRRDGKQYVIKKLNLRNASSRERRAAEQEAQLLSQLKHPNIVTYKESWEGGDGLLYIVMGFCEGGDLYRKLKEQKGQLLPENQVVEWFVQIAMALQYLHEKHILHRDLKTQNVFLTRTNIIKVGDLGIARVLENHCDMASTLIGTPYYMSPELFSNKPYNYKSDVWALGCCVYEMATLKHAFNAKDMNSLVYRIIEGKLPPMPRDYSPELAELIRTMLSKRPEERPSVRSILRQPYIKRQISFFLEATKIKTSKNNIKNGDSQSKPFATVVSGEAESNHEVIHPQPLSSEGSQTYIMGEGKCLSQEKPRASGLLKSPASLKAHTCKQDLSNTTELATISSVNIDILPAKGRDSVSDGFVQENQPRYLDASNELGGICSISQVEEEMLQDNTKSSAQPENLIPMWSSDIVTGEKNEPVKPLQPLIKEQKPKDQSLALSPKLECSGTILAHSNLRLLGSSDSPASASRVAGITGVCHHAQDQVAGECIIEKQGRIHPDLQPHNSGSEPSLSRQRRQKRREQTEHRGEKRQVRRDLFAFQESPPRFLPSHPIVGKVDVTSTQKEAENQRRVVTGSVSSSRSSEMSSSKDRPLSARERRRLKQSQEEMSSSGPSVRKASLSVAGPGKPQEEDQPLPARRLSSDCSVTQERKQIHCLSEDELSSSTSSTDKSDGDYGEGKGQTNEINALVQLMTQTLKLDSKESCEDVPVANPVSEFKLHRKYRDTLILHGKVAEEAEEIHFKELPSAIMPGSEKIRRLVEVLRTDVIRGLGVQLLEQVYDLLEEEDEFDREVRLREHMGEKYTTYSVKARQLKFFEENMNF

Serine/threonine-protein kinase Nek7 (Homo sapiens), sequence (Q8TDX7 whole entry, looked up): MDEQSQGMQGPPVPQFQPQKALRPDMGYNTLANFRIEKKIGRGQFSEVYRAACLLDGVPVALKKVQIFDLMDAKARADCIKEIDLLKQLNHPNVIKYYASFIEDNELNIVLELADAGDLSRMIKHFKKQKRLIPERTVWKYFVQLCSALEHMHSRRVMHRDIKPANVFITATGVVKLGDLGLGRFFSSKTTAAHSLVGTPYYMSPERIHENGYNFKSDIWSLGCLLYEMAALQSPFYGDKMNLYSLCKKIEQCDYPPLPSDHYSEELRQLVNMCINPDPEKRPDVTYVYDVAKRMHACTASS
Serine/threonine-protein kinase PLK1 (Homo sapiens), sequence (P53350 whole entry): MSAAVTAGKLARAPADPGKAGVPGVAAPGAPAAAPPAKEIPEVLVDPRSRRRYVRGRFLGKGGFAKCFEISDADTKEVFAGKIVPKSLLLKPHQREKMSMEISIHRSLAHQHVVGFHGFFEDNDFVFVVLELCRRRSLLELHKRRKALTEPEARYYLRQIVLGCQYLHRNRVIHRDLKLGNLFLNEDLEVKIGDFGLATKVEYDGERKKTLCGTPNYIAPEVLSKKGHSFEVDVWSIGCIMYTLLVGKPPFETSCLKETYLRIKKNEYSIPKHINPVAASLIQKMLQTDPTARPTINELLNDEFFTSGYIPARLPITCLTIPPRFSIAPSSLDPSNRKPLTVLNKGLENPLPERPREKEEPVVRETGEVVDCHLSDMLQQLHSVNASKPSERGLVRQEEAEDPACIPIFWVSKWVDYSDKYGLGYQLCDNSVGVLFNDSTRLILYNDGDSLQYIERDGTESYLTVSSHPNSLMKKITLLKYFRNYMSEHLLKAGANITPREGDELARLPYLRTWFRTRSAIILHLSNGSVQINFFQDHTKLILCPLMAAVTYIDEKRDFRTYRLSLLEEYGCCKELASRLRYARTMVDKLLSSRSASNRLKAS
Calcium/calmodulin-dependent protein kinase type II subunit gamma (Homo sapiens), sequence (Q13555 whole entry): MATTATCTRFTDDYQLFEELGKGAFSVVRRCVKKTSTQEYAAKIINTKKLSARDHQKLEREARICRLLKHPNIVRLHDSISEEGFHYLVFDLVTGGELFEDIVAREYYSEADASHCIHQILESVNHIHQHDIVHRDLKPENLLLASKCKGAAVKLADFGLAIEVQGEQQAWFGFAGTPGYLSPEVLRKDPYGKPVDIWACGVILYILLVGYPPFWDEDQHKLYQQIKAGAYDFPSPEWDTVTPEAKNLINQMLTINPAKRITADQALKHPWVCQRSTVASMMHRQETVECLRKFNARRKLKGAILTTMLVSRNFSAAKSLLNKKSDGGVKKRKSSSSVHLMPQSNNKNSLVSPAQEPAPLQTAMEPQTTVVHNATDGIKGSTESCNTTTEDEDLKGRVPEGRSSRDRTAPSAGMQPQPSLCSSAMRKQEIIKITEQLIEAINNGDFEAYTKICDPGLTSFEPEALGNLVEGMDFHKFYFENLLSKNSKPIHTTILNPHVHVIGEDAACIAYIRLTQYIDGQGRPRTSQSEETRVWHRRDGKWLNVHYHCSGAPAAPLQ
Mitogen-activated protein kinase 12 (Homo sapiens), sequence (P53778 whole entry): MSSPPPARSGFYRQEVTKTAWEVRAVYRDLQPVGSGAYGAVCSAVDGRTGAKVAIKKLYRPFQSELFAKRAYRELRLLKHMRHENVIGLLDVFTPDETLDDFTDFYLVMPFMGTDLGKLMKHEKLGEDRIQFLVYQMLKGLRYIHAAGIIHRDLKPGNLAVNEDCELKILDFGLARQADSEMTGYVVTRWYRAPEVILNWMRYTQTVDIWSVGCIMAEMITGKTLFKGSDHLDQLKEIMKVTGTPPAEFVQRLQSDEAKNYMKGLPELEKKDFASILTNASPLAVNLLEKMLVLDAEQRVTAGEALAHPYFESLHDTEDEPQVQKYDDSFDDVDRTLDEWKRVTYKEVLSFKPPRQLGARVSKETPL
Serine/threonine-protein kinase Nek1 (Homo sapiens), sequence (Q96PY6 whole entry): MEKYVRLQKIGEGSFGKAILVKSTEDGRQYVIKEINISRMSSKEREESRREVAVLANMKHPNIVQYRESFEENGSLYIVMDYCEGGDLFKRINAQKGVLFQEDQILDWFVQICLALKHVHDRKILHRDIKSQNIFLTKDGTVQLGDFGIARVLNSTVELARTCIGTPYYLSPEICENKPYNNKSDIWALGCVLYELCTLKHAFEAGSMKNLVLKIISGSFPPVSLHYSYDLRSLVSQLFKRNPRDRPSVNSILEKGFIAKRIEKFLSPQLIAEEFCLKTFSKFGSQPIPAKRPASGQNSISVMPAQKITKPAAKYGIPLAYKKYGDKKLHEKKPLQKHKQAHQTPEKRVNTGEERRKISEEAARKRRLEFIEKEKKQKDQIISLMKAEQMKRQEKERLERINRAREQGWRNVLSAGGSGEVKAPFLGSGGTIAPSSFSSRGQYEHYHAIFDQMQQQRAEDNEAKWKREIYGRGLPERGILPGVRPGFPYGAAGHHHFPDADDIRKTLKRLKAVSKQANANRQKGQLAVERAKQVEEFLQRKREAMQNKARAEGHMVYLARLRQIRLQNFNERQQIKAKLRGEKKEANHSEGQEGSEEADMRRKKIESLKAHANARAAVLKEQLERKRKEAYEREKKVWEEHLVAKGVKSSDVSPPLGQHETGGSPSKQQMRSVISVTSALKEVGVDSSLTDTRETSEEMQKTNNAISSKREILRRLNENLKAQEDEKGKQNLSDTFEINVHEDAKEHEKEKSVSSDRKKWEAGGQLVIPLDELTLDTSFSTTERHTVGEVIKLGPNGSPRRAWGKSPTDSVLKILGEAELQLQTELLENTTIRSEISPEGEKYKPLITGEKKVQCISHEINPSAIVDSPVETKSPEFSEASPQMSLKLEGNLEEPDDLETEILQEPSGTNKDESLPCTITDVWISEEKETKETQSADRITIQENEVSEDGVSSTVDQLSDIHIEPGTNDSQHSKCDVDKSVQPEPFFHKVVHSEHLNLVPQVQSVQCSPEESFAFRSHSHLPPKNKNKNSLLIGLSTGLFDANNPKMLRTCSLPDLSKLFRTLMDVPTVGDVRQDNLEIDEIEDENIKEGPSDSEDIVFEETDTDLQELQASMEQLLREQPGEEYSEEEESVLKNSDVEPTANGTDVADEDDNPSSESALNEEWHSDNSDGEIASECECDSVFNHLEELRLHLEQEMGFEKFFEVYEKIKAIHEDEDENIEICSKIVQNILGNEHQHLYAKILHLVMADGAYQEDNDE
Phosphatidylinositol 5-phosphate 4-kinase type-2 alpha (Homo sapiens), sequence (P48426 whole entry): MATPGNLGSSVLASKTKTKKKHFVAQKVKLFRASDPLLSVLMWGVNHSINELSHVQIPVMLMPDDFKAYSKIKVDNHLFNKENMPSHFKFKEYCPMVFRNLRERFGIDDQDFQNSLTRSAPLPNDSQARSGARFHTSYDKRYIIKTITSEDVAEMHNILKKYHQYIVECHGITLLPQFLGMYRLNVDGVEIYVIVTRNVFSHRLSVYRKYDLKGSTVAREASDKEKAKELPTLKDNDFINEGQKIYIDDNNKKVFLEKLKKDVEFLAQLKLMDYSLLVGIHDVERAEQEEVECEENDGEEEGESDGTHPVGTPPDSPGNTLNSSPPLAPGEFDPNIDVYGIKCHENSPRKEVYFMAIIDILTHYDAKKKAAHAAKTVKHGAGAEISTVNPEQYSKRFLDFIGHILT
G protein-coupled receptor kinase 6 (Homo sapiens), sequence (P43250 whole entry, looked up): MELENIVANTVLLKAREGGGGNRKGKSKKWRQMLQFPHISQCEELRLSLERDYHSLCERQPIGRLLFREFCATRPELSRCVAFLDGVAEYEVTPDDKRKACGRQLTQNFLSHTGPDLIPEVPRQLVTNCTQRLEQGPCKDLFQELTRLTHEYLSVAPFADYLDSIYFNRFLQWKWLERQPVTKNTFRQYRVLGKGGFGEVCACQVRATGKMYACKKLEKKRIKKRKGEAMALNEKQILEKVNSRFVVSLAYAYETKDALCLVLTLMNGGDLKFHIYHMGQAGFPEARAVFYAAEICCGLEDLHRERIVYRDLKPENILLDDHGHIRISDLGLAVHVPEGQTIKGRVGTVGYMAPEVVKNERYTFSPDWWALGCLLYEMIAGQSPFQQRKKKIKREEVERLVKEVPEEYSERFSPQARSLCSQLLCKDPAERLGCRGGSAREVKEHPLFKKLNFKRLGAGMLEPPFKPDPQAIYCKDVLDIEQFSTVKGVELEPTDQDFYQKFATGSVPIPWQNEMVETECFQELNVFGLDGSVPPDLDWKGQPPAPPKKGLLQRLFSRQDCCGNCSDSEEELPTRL

CC(C)n1cc(-c2cc(-c3ccc(CN4CCOCC4)cc3)cnc2N)nn1
inhibition [1]: 2.1% | inhibition [2]: 11% | inhibition [3]: 2.2% | inhibition [4]: 10% | inhibition [5]: 26.4% | inhibition [6]: 8.2% | inhibition [7]: 7.7% | inhibition [8]: -6.7% | inhibition [9]: -10% | inhibition [10]: -3.3% | inhibition [11]: 16% | inhibition [12]: -1.2% | inhibition [13]: 10.3% | inhibition [14]: 6.1% | inhibition [15]: -7.5% | inhibition [16]: -1.7%
